Results reported in article PMC9592870 (Molecular Diversity, 2022).

What was measured:
Vero cells = conditions: CC50 Vero cells / MIC Mtb H37Rv
M. fortuitum ATCC 6841 = test: Antimycobacterial broth microdilution MIC, non-tuberculous mycobacteria; format: cell-based; conditions: 48 h
M. chelonae ATCC 35752 = test: as above; format: cell-based; conditions: 48 h

SMILES	SI selectivity index (CC50/MIC) (Vero cells)	MIC M. fortuitum ATCC 6841 (M. fortuitum ATCC 6841)	MIC M. chelonae ATCC 35752 (M. chelonae ATCC 35752)
COC(=O)c1cc(-c2cccc(NC(=O)Nc3ccccc3OC)c2)on1 [4d, Methyl 5-(3-(3-(2-methoxyphenyl)ureido)phenyl)isoxazole-3-carboxylate]	< 20	–	–
COC(=O)c1cc(-c2cccc(NC(=O)Nc3ccc(F)cc3)c2)on1 [4j, Methyl 5-(3-(3-(4-fluorophenyl)ureido)phenyl)isoxazole-3-carboxylate]	> 200	–	–
COC(=O)c1cc(-c2cccc(NC(=O)Nc3ccc(C(F)(F)F)cc3)c2)on1 [4n, Methyl 5-(3-(3-(4-(trifluoromethyl)phenyl)ureido)phenyl)isoxazole-3-carboxylate]	> 50	–	–
COC(=O)c1cc(-c2cccc(NC(=O)Nc3ccc(Cl)cc3Cl)c2)on1 [4r, Methyl 5-(3-(3-(2,4-dichlorophenyl)ureido)phenyl)isoxazole-3-carboxylate]	> 50	–	–
COC(=O)c1cc(-c2ccc(NC(=O)Nc3ccc(Cl)c(Cl)c3)cc2)on1 [4tb, Methyl 5-(4-(3-(3,4-dichlorophenyl)ureido)phenyl)isoxazole-3-carboxylate]	> 80	–	–
COC(=O)c1cc(-c2cccc(NC(=O)Nc3cc(OC)ccc3OC)c2)on1 [4w, Methyl 5-(3-(3-(2,5-dimethoxyphenyl)ureido)phenyl)isoxazole-3-carboxylate]	< 20	–	–
COC(=O)c1cc(-c2cccc(NC(=S)Nc3ccc(Cl)cc3)c2)on1 [5f, Methyl 5-(3-(3-(4-chlorophenyl)thioureido)phenyl)isoxazole-3-carboxylate]	> 50	–	–
COC(=O)c1cc(-c2cccc(NC(=S)Nc3ccc(C#N)cc3)c2)on1 [5i, Methyl 5-(3-(3-(4-cyanophenyl)thioureido)phenyl)isoxazole-3-carboxylate]	–	weaker inhibition	weaker inhibition
COC(=O)c1cc(-c2cccc(NC(=S)Nc3ccc(F)cc3F)c2)on1 [5k, Methyl 5-(3-(3-(2,4-difluorophenyl)thioureido)phenyl)isoxazole-3-carboxylate]	–	weaker inhibition	weaker inhibition
COC(=O)c1cc(-c2cccc(NC(=S)Nc3ccc(F)c(Cl)c3)c2)on1 [5m, Methyl 5-(3-(3-(3-chloro-4-fluorophenyl)thioureido)phenyl)isoxazole-3-carboxylate]	–	weaker inhibition	weaker inhibition
